IC50 data for eleven compounds are collected here from ChEMBL document CHEMBL1142387, “Synthetic homoserine lactone-derived sulfonylureas as inhibitors of Vibrio fischeri quorum sensing regulator” (Bioorg Med Chem, 2008).

pIC50: −log10 of the molar value.

For the test, the target named is T1, Transcriptional activator protein LuxR (Aliivibrio fischeri, UniProt P12746).
T1 sequence (P12746 whole entry): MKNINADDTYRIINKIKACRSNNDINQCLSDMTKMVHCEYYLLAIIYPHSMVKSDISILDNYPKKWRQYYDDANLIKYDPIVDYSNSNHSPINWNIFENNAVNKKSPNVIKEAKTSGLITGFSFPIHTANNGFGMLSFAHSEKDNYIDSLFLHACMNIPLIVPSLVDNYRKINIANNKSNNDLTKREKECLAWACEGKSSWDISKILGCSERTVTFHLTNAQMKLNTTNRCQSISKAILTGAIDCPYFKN
Description: Antagonist activity at LuxR in Vibrio fischeri assessed as inhibition of N-3-oxos-hexanoyl-L-homoserine lactone induced luminescence. In kind it is functional.
As to `CCCCCS(=O)(=O)NC1CCOC1=O` (stereo unspecified), the pIC50 was 5.52.

For `O=C1OCCC1NS(=O)(=O)NCCCc1ccccc1` (stereo unspecified), the negative-log IC50 (pIC50) was 5.03.

For `CCCCNC(=O)NC1CCOC1=O` (stereo unspecified), the negative-log IC50 (pIC50) was 5.30.

With `CCCCCCCCCCNS(=O)(=O)NC1CCOC1=O` (stereo unspecified), the pIC50 is 5.11.

Consider `CCCCNS(=O)(=O)NC1CCOC1=O` (stereo unspecified), for which the negative logarithm of the IC50 (pIC50) was 5.44.

As for `CCCCCNS(=O)(=O)NC1CCOC1=O` (stereo unspecified), the pIC50 was 5.70.

As for `O=C1OCCC1NS(=O)(=O)NCCc1ccccc1` (stereo unspecified), the pIC50 was 4.89.

For `O=C1OCCC1NS(=O)(=O)NCc1ccccc1` (stereo unspecified), the pIC50 is 5.19.

Turning to `O=C1OCCC1NS(=O)(=O)NCCCCc1ccccc1` (stereo unspecified), the negative logarithm of the IC50 (pIC50) is 4.89.

Regarding `CCCCCCCCNS(=O)(=O)NC1CCOC1=O` (stereo unspecified), the pIC50 is 5.14.

Consider `CCCCCCNS(=O)(=O)NC1CCOC1=O` (stereo unspecified), for which the negative logarithm of the IC50 (pIC50) was 5.30.

A word on the pIC50: it is the IC50 on a negative log10 scale, so that one unit is a factor of ten.
